Measured values as given in EP2711367A1, “New spiroepoxide tetrahydrobenzo-triazoles and -imidazoles and their use as MetAP-II inhibitors” (Deutsches Krebsforschungszentrum, priority 2012, dated 2014).
Read-outs that look alike come from different tables or passages of the source.

Assays:
[1] = background, Phase II clinical compound; cited from earlier work
hsMetAP-I = hsMetAP-I (Homo sapiens, UniProt P53582); test: MetAP inhibitory activity, Met-Gly-Met-Met substrate, HPLC detection of Gly-Met-Met; format: biochemical, hs; conditions: single concentration: inhibitor 25 µM, enzyme 50 nM, 15 minutes substrate incubation at 37 °C
Experimental: (§1) The below protocol describes the measurement of the inhibitory activity of the compounds of the present invention by using E. coli MetAP, hsMetAP-I, and hsMetAP-II.
(§2) Inhibition activity of compounds was studied using the tetrapeptide substrate Met-Gly-Met-Met (Bachem) followed by HPLC analysis of the product Gly-Met-Met. The assay was performed in 96 well plates (Greiner) at a total reaction volume of 100 µl. […] A positive control with DMSO solution instead of inhibitor at the corresponding concentration was prepared. Then the substrate Met-Gly-Met-Met was added to a final concentration of 400 µM. After an incubation period of 15 minutes (HsMetAP-I), 20 minutes (EcMetAP) or 60 minutes (HsMetAP-II) at 37 °C, the enzyme reaction was stopped by adding 10 µl 4 % trifluoroacetic acid. The plate was centrifuged at 1000 x g for 10 minutes.
(§3) Detection of the product Gly-Met-Met was performed by HPLC (Jasco), and typically using the following, or equivalent conditions: C18 column (Dr. Maisch, ReproSil-Pur® 120 ODS-3, 3 µm, 50 x 2 mm). 80 µl of sample were applied on the column and eluted with mobile phase A (water and 0.1 % trifluoroacetic acid, filtered, degassed) and B (acetonitrile and 0.1 % trifluoroacetic acid, degassed) over 8 minutes.
(§4) Percentage inhibition was calculated as the relation of Gly-Met-Met amount resulting in inhibited and uninhibited enzyme reaction (positive control). […] The values were determined in relation to positive controls with equal DMSO contents. The inhibition values for the varying concentrations of inhibitor were then fitted to a logarithmic dose-response curve and the IC50 values were calculated from the equation thus obtained.

E. coli MetAP = E. coli MetAP (Escherichia coli, UniProt P0AE18); test: as above; format: biochemical; conditions: for inhibition at 25 µM: read-out: E. Coli % inhibition; for E. Coli % inhibition: single concentration: inhibitor 25 µM, enzyme 50 nM, 20 minutes substrate incubation at 37 °C
Experimental: as §1, §2, §3, §4

[2] = tested on: human umbilical vein endothelial cells (HUVEC); test: HUVEC growth arrest, crystal violet staining; format: cell-based
Text: For the measurement of the HUVEC growth arrest (Example 19) and the used materials and equipment were:
• Cells: Primary human umbilical vein cells (HUVEC) were obtained from GIBCO (Cat. C-015-5C). • Cell culture medium: Medium 200 supplemented with LSGS (Gibco, Cat. M-200-500). • Trypsin/EDTA (Gibco, Cat R-001-100) • Trypsin Neutralizer solution (Gibco, Cat R-002-100). • Crystal violet (Merck / Cat. no. 1408) • Ethanol (Riedel-de-Haen / Cat. no. 32205) • Acetic acid (Riedel-de-Haen / Cat. no. 33209) • Culture flasks: Coming, 430168 • 96 well plates: Greiner, 655 101
• Microtiter pipettes: •Brand Transferpette-8, • Gilson Pipetman 20 and 200 Laminar air flow cabinet: Gelman, Celaire • ELISA reader: Thermo, Multiskan Ascent • Microscope: Leitz Diavert • Balance: Sartorius RC 210 D • CO2 incubator: Heraeus CO2-Auto-Zero • Centrifuge: Heraeus Biofuge primo • Cell counter: Assistent, Neubauer hematocytometer
Crystal violet solution: • Crystal violet (Merck) was dissolved in ethanol (PA quality, Roth) to a concentration of 10 %. The solution was diluted with ddH2O 1:20.
Test compounds: • Compounds of the present invention were dissolved at a concentration of 10 mM in DMSO (Roth, Cat. 47201). Stock solutions of test compounds were diluted 1:10 not earlier than 1 hour before the assay was made.
• 1. HUVEC cells were seeded in 96-well plates ([…]). • 2. 6 hours later test compounds were added in triplicates Concentrations of test compound: 0, 1.6, 3.2, 6.3, 12.5, 25, 50, 100 µM. Fresh medium and test compounds were added every 48 hr. • 3. One 96 well plate (t=0) with untreated cells was fixed at the same time point as treatment of cells with test compounds was initiated. • 4. Test plates were incubated for 10 days in a CO2 incubator. • 5. Fixation of cells: Wells were washed with 100 µL/well PBS. PBS was decanted and 100 µL of 3 % formaldehyde/well was added. After 5 min, formaldehyde was decanted and plates were dried upside down on blotting paper overnight at room temperature. • 6. Staining: 0.1 mL of crystal violet solution was added to each well with a 12-channel pipette. After incubation for 5 min at room temperature, the crystal violet solution was decanted and plates were washed 5 x by submersion in 3 L fresh water. • 7. After drying (plates were dried on blotting paper upside down overnight) 0.1 mL of ethanol/acetic acid (99:1) was added to each well and the optical density at 595 nm was determined in an ELISA reader.
The evaluation of the growth inhibitory activity was carried out as follows: • Definitions: Growth: Mean OD at t=10 d - mean OD at t=0. • Evaluation: Dose response curves were established by plotting growth against concentration of compounds using Microsoft Excel.

hsMetAP-II = hsMetAP-II (Homo sapiens, UniProt P50579); test: MetAP inhibitory activity, Met-Gly-Met-Met substrate, HPLC detection of Gly-Met-Met; format: biochemical, hs
Experimental: as §1
Inhibition activity of compounds was studied using the tetrapeptide substrate Met-Gly-Met-Met (Bachem) followed by HPLC analysis of the product Gly-Met-Met. The assay was performed in 96 well plates (Greiner) at a total reaction volume of 100 µl. […] Then the substrate Met-Gly-Met-Met was added to a final concentration of 400 µM. After an incubation period of 15 minutes (HsMetAP-I), 20 minutes (EcMetAP) or 60 minutes (HsMetAP-II) at 37 °C, the enzyme reaction was stopped by adding 10 µl 4 % trifluoroacetic acid. The plate was centrifuged at 1000 x g for 10 minutes.
as §3, §4

[3] = Homo sapiens, HUVEC, 240 h, growth over 10 days, 0-100 µM, OD at 595 nm, read-out: HUVEC IC50
[4] = hsMetAP-II IC50, enzyme 50 nM, 400 µM Met-Gly-Met-Met, 60 minutes at 37 °C
[5] = read-out: hsMetAP-II % inhibition, single concentration: inhibitor 25 µM, enzyme 50 nM, 60 minutes substrate incubation at 37 °C
[6] = growth over 10 days, 0-100 µM, OD at 595 nm, read-out: HUVEC IC50
[7] = single concentration: inhibitor 25 µM, enzyme 50 nM, 60 minutes substrate incubation at 37 °C
[8] = enzyme 50 nM, 400 µM Met-Gly-Met-Met, 60 minutes at 37 °C, read-out: hsMetAP-II IC50
[9] = single concentration: inhibitor 25 µM, enzyme 50 nM, 60 minutes substrate incubation at 37 °C, read-out: hsMetAP-II % inhibition

E. coli MetAP, sequence (P0AE18 whole entry): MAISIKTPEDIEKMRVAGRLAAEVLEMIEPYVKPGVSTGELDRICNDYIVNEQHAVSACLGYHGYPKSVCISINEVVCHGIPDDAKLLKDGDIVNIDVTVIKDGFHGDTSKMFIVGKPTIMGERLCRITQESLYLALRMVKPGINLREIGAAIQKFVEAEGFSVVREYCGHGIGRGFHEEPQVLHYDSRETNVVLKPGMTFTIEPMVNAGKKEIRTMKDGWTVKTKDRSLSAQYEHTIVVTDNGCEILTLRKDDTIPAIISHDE
hsMetAP-II, sequence (P50579 whole entry): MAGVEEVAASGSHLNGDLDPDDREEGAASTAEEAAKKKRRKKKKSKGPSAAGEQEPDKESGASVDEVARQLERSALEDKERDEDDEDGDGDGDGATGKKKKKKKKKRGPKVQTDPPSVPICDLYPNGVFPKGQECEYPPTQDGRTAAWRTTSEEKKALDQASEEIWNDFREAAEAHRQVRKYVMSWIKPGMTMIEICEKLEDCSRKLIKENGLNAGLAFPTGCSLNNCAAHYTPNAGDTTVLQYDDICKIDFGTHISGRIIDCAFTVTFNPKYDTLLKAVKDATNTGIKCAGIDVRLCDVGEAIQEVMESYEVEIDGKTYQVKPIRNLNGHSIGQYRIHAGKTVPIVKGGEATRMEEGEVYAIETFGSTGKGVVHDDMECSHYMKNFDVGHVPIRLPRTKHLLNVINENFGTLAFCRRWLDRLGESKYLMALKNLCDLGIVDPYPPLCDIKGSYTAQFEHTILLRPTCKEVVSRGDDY

Compound: CO[C@@H]1[C@H](OC(=O)NC(=O)CCl)CC[C@]2(CO2)[C@H]1[C@@]1(C)O[C@@H]1CC=C(C)C [TNP-470]
- plasma half-life [1]: ~ 2 min

Compound: CC(C)NC(=O)O[C@@H]1CC[C@]2(CO2)c2c1nnn2Cc1ccccc1 (racemic) [UWU-XII-128-A]
- hsMetAP-I % inhibition (hsMetAP-I): Inactive
- inhibition at 25 µM (E. coli MetAP): 24 ± 2%
- IC50 [2, 3]: 1200 nM
- inhibitory effect on MetAP-II (in words) (hsMetAP-II): good inhibitory effect
- IC50 (hsMetAP-II; [4]): 420 ± 70 nM
- inhibition at 25 µM (hsMetAP-II; [5]): 100%

Compound: COc1ccc(Cn2nnc3c2C2(CCC3OC(=O)Nc3ccccc3)CO2)cc1 (racemic) [UWU-XIII-005-A]
- hsMetAP-I % inhibition (hsMetAP-I): Inactive
- E. Coli % inhibition (E. coli MetAP): Inactive
- IC50 [2, 6]: 14900 nM
- IC50 (hsMetAP-II; [4]): 18000 ± 5000 nM
- hsMetAP-II % inhibition (hsMetAP-II; [7]): 44 ± 6%

Compound: COc1ccc(Cn2nnc3c2C2(CCC3=O)CO2)cc1 (stereo not shown) [HHS-I-028-B]
- hsMetAP-I % inhibition (hsMetAP-I): Inactive
- E. Coli % inhibition (E. coli MetAP): Inactive
- IC50 [2, 3]: 8800 nM
- inhibitory effect on MetAP-II (in words) (hsMetAP-II): good inhibitory effect
- IC50 (hsMetAP-II; [8]): 980 ± 30 nM
- inhibition at 25 µM (hsMetAP-II; [9]): 97 ± 0.3%

Compound: O=C1CCC2(CO2)c2c1nnn2Cc1ccc(C(F)(F)F)cc1 (stereo not shown) [BK-I-161-A]
- hsMetAP-I % inhibition (hsMetAP-I): Inactive
- E. Coli % inhibition (E. coli MetAP): Inactive
- IC50 [2, 3]: 900 nM
- inhibitory effect on MetAP-II (in words) (hsMetAP-II): good inhibitory effect
- IC50 (hsMetAP-II; [8]): 520 ± 50 nM
- inhibition at 25 µM (hsMetAP-II; [9]): 100%

Compound: COc1ccc(Cn2nnc3c2[C@@]2(CC[C@H]3OC(=O)c3ccccc3)CO2)cc1 (racemic) [UWU-XII-023-D]
- hsMetAP-I % inhibition (hsMetAP-I): Inactive
- E. Coli % inhibition (E. coli MetAP): Inactive
- IC50 [2, 3]: 2100 nM
- IC50 (hsMetAP-II; [4]): 17000 ± 12000 nM
- inhibition at 25 µM (hsMetAP-II; [5]): 45 ± 4%

Compound: COc1ccc(Cn2nnc3c2[C@]2(CC[C@H]3OC(=O)c3ccccc3)CO2)cc1 (racemic) [UWU-II-023-A]
- hsMetAP-I % inhibition (hsMetAP-I): Inactive
- E. Coli % inhibition (E. coli MetAP): Inactive
- IC50 ([2]; Homo sapiens, HUVEC, 240 h, read-out: HUVEC IC50, growth over 10 days, 0-100 µM, OD at 595 nm): 2400 nM
- inhibitory effect on MetAP-II (in words) (hsMetAP-II): good inhibitory effect
- IC50 (hsMetAP-II; [4]): 600 ± 10 nM
- inhibition at 25 µM (hsMetAP-II; [5]): 98.6 ± 0.4%

Compound: O=C1CCC2(CO2)c2c1nnn2Cc1ccc(F)cc1 (stereo not shown) [BK-I-178-A]
- hsMetAP-I % inhibition (hsMetAP-I): Inactive
- inhibition at 25 µM (E. coli MetAP): 13 ± 5%
- IC50 [2, 3]: 3200 nM
- IC50 (hsMetAP-II; [8]): 870 ± 90 nM
- inhibition at 25 µM (hsMetAP-II; [9]): 100%

Compound: O=C1CCC2(CO2)c2c1nnn2CC1CCCCC1 (stereo not shown) [BK-I-177-A]
- hsMetAP-I % inhibition (hsMetAP-I): Inactive
- inhibition at 25 µM (E. coli MetAP): 19 ± 5%
- IC50 [2, 3]: 9700 nM
- IC50 (hsMetAP-II; [8]): 17000 ± 6000 nM
- inhibition at 25 µM (hsMetAP-II; [9]): 40 ± 3%

Compound: COc1ccc(Cn2nnc3c2[C@@]2(CC[C@H]3OC(=O)NC(C)C)CO2)cc1 (racemic) [UWU-XII-131-C]
- hsMetAP-I % inhibition (hsMetAP-I): Inactive
- E. Coli % inhibition (E. coli MetAP): Inactive
- IC50 [2, 3]: 2500 nM

Compound: COc1ccc(Cn2nnc3c2C2(CCC3OC(=O)NCC(N)=O)CO2)cc1 (stereo not shown) [UWU-XII-143-A]
- hsMetAP-I % inhibition (hsMetAP-I): Inactive
- inhibition at 25 µM (E. coli MetAP): 12 ± 1%
- IC50 [2, 3]: 2600 nM
- IC50 (hsMetAP-II; [4]): 230 ± 20 nM
- inhibition at 25 µM (hsMetAP-II; [5]): 100%

Compound: COc1ccc(Cn2nnc3c2[C@@]2(CC[C@@H]3OC(=O)NC(C)C)CO2)cc1 [(-)-UWU-XII-131-A]
- hsMetAP-I % inhibition (hsMetAP-I): Inactive
- E. Coli % inhibition (E. coli MetAP): Inactive
- IC50 [2, 3]: 8200 nM

Compound: CC(C)NC(=O)O[C@@H]1CC[C@@]2(CO2)c2c1nnn2Cc1ccccc1 (racemic) [UWU-XII-128-C]
- hsMetAP-I % inhibition (hsMetAP-I): Inactive
- inhibition at 25 µM (E. coli MetAP): 18 ± 2%
- IC50 [2, 3]: 9500 nM
- IC50 (hsMetAP-II; [4]): 18000 ± 9000 nM
- inhibition at 25 µM (hsMetAP-II; [5]): 60 ± 5%

Compound: O=C1CCC2(CO2)c2c1nnn2Cc1ccc(Cl)cc1 (stereo not shown) [BK-I-184-A]
- hsMetAP-I % inhibition (hsMetAP-I): Inactive
- inhibition at 25 µM (E. coli MetAP): 14 ± 5%
- IC50 [2, 3]: 7400 nM
- IC50 (hsMetAP-II; [8]): 740 ± 30 nM
- inhibition at 25 µM (hsMetAP-II; [9]): 100%

Compound: COc1ccc(Cn2nnc3c2C2(CCC3OC(=O)Nc3ccccc3)CO2)cc1 (racemic) [UWU-XII-149-A]
- hsMetAP-I % inhibition (hsMetAP-I): Inactive
- E. Coli % inhibition (E. coli MetAP): Inactive
- IC50 [2, 6]: 3200 nM
- IC50 (hsMetAP-II; [4]): 990 ± 50 nM
- hsMetAP-II % inhibition (hsMetAP-II; [7]): 100%

Compound: COc1ccc(Cn2nnc3c2C2(CCC3OC(=O)NCC(C)C)CO2)cc1 (racemic) [UWU-XII-142-A]
- hsMetAP-I % inhibition (hsMetAP-I): Inactive
- inhibition at 25 µM (E. coli MetAP): 18.7 ± 0.8%
- IC50 [2, 3]: 2400 nM
- IC50 (hsMetAP-II): 150 ± 30 nM
- inhibition at 25 µM (hsMetAP-II; [5]): 100%

Compound: COc1ccc(Cn2nnc3c2[C@]2(CC[C@H]3OC(=O)NC(C)C)CO2)cc1 (racemic) [UWU-XII-131-A]
- hsMetAP-I % inhibition (hsMetAP-I): Inactive
- E. Coli % inhibition (E. coli MetAP): Inactive
- IC50 [2, 3]: 400 nM
